Assays:
[1] = Encapsulation efficiency and loading of cargoes in thin-shell hollow PLGA nanoparticles; assay type: physicochemical
[2] = design: species or system mice; details: mouse, in vivo
Protocol: FIG. […], is a depiction of STING agonist-loaded nanoparticles on enhancing lymphatic cytokines while minimizing systemic cytokines. • A: Induction of TNF-α in a mouse dendritic cell line following incubation with cd-GMP nanoparticles and free cd-GMP. • B: Induction of IL-6 in the same mouse dendritic cell line. • C: Induction of IFN-β in the mouse dendritic cell line. • D: Activation of JAWSII upon incubation with equivalent doses of cd-GMP in free molecule form and in nanoparticle formulation. • E: Quantification of lymph node IFN-β 48 hours following footpad injection of free cd-GMP or nanoparticle cd-GMP. • F: Level of systemic TNF-α following footpad injection of free cd-GMP and nanoparticle cd-GMP. Immune potentiation by the cd-GMP nanoparticles was further compared to free cd-GMP in vivo in mice. 48 hours following footpad injections, the draining popliteal lymph nodes were collected for IFN-β quantification. […] In addition, the systemic level of TNF-α, an indicator of reactogenicity, was also monitored following the footpad administration of free cd-GMP and cd-GMP nanoparticles.

Which encapsulation efficiency ([1]; cargo in thin-shell hollow PLGA nanoparticles, listed as cd-GMP) does the source give for `Nc1nc2c(ncn2[C@@H]2O[C@@H]3COP(=O)(O)O[C@H]4[C@@H](O)[C@H](n5cnc6c(=O)[nH]c(N)nc65)O[C@@H]4COP(=O)(O)O[C@H]3[C@H]2O)c(=O)[nH]1` [cyclic di-GMP] here?
Its encapsulation efficiency is “about 40%”.

And the “STING agonist molecules per nanoparticle” value ([1]; hollow particles 100 to 200 nm in diameter)?
Its value is “approximately 2,000”.

And the “serum level of TNF-α, indicator of reactogenicity” value [2]?
Its value is “elevated level”.
